Values quoted from earlier work in patent publication US7981649B2 (priority 2001, dated 2011).

Tested on: human hepatocyte and neuroblastoma cells

SMILES	effect on cell metabolism
CCOP(=O)(OCC)Oc1ccc([N+](=O)[O-])cc1 [paraoxon]	opposite effects on hepatocyte and neuroblastoma cell metabolism
CCOP(=S)(OCC)Oc1ccc([N+](=O)[O-])cc1 [parathion]	opposite effects on hepatocyte and neuroblastoma cell metabolism
